Values quoted from earlier work in patent US20040202732A1, “Composition to promote weight loss” (priority 2003, published 2004).

Key:
[1] = system: prostaglandin E2 production
[2] = caffeine administration alone
[3] = three daily doses for 2 weeks, exercise 90 minutes three times weekly
[4] = 12 weeks, fifty-three healthy men and women
[5] = 12 weeks, 3.4-g and higher CLA groups, sixty overweight or obese subjects
[6] = mice fed CLA supplemented diets for 28 days
[7] = 4-week treatment

**Q.** What does the source list for `O=C(O[C@@H]1Cc2c(O)cc(O)cc2O[C@@H]1c1cc(O)c(O)c(O)c1)c1cc(O)c(O)c(O)c1` [EGCG, epigallocatechin galate]?
**A.** inhibition of prostaglandin E2 production [1]: can inhibit; inhibition of TNF-alpha (TNF-alpha): can inhibit

**Q.** With `Cn1c(=O)c2c(ncn2C)n(C)c1=O` [caffeine] as the compound, how does the “increased resting energy expenditure and fat oxidation” value [2] read?
**A.** The value was “did not occur”.

**Q.** What does the source list for Conjugated Linoleic Acid [CLA]?
**A.** body weight loss [3]: no effects; body fat ([3]; versus placebo): significantly reduced; decrease of proportion of body fat [4]: 3.8%; inhibition of IL-1 (IL-1): can inhibit; inhibition of prostaglandin E2 production [1]: can inhibit; body fat mass (BFM) [5]: significant reduction; body mass [6]: maintained body mass; increase of body protein [6]: up to 13%; reduction of body fat [6]: up to 60%; reduction from waistlines ([7]; average): an average of one-inch reduction; sagittal abdominal diameter (SAD) ([7]; twenty-five men with significant abdominal fat): significant reduction
